Values of other authors as cited in article PMC8433641, “A Stability-Indicating Ultra Performance Liquid Chromato-Graphic (UPLC) Method for the Determination of a Mycophenolic Acid-Curcumin Conjugate and Its Applications to Chemical Kinetic Studies” (Molecules, 2021).

Set-up: method as in PMID 29678124
Conditions: pH 7.4

Q: Which t1/2 does the source give for curcumin here?
A: The t1/2 was 33.6 min.
